Results on 1 molecule are retold here after publication PMC5218480 (PLoS ONE, 2017).

This assay relates to MV-4-11 cells. In words: Gene expression microarray analysis (Affymetrix PrimeView) and GSEA. In kind it is cell-based, human. Details: RFU PODN (11730768_x_at) / Fold change /veh PODN (11730768_x_at) / RFU LINC00158 (11744669_a_at) / Fold change /veh LINC00158 (11744669_a_at) / RFU DUSP10 (11751237_a_at) / Fold change /veh DUSP10 (11751237_a_at) / RFU ID3 (11757404_x_at) / Fold change /veh ID3 (11757404_x_at) / RFU PLEKHG5 (11737974_s_at) / Fold change /veh PLEKHG5 (11737974_s_at) / RFU LRRC4B (11730491_at) / Fold change /veh LRRC4B (11730491_at) / RFU GIMAP4 (11747438_a_at) / Fold change /veh GIMAP4 (11747438_a_at) / RFU KRT8 (11758183_x_at) / Fold change /veh KRT8 (11758183_x_at) / RFU CNN1 (11734310_a_at) / Fold change /veh CNN1 (11734310_a_at) / RFU VPS37D (11726825_at) / Fold change /veh VPS37D (11726825_at) / RFU C10orf10 (11716522_x_at) / Fold change /veh C10orf10 (11716522_x_at) / RFU KIR2DL2 /// KIR2DL4 /// KIR2DL5A /// KIR2DL5B /// KIR2DS1 /// KIR2DS2 /// KIR2DS3 /// KIR2DS4 /// KIR3DL3 /// KIR3DL3 /// KIR3DS1 (11738374_at) / Fold change /veh KIR2DL2 /// KIR2DL4 /// KIR2DL5A /// KIR2DL5B /// KIR2DS1 /// KIR2DS2 /// KIR2DS3 /// KIR2DS4 /// KIR3DL3 /// KIR3DL3 /// KIR3DS1 (11738374_at) / RFU C1QL1 (11718748_at) / Fold change /veh C1QL1 (11718748_at) / RFU TMPRSS4 (11747572_a_at) / Fold change /veh TMPRSS4 (11747572_a_at) / RFU HAMP (11756126_x_at) / Fold change /veh HAMP (11756126_x_at) / RFU RNFT2 (11725882_a_at) / Fold change /veh RNFT2 (11725882_a_at) / RFU NR4A2 (11747474_a_at) / Fold change /veh NR4A2 (11747474_a_at) / RFU ABCC12 (11746883_a_at) / Fold change /veh ABCC12 (11746883_a_at) / RFU TMEM136 (11760407_x_at) / Fold change /veh TMEM136 (11760407_x_at) / RFU CLDN22 /// WWC2 (11732394_at) / Fold change /veh CLDN22 /// WWC2 (11732394_at) / RFU HLA-DPB1 (11760878_x_at) / Fold change /veh HLA-DPB1 (11760878_x_at) / RFU SPINT1 (11716480_a_at) / Fold change /veh SPINT1 (11716480_a_at) / RFU GAP43 (11754022_s_at) / Fold change /veh GAP43 (11754022_s_at) / RFU A4GNT (11735810_at) / Fold change /veh A4GNT (11735810_at) / RFU PRB3 (11715151_x_at) / Fold change /veh PRB3 (11715151_x_at) / RFU TUBB4B (11761932_at) / Fold change /veh TUBB4B (11761932_at) / RFU CAPN14 (11732068_a_at) / Fold change /veh CAPN14 (11732068_a_at) / RFU TMCC2 (11721928_a_at) / Fold change /veh TMCC2 (11721928_a_at) / RFU IRGQ (11745062_a_at) / Fold change /veh IRGQ (11745062_a_at) / RFU FAM174B (11720279_a_at) / Fold change /veh FAM174B (11720279_a_at) / RFU TMPRSS4 (11748680_a_at) / Fold change /veh TMPRSS4 (11748680_a_at) / RFU FAM212B (11763350_a_at) / Fold change /veh FAM212B (11763350_a_at) / RFU PLEKHG5 (11743358_a_at) / Fold change /veh PLEKHG5 (11743358_a_at) / RFU ZSCAN30 (11745921_a_at) / Fold change /veh ZSCAN30 (11745921_a_at) / RFU CMKLR1 (11741424_a_at) / Fold change /veh CMKLR1 (11741424_a_at) / RFU LOC101060620 /// MAPK8IP1 (11723275_at) / Fold change /veh LOC101060620 /// MAPK8IP1 (11723275_at) / RFU SPTSSB (11747773_x_at) / Fold change /veh SPTSSB (11747773_x_at) / RFU PRSS12 (11739890_at) / Fold change /veh PRSS12 (11739890_at) / RFU BIN1 (11741810_x_at) / Fold change /veh BIN1 (11741810_x_at) / RFU WNT11 (11732464_a_at) / Fold change /veh WNT11 (11732464_a_at) / RFU C10orf10 (11716521_a_at) / Fold change /veh C10orf10 (11716521_a_at) / RFU C5orf56 (11738089_at) / Fold change /veh C5orf56 (11738089_at) / RFU CYB561 (11721691_x_at) / Fold change /veh CYB561 (11721691_x_at) / RFU ANKRD19P (11752326_a_at) / Fold change /veh ANKRD19P (11752326_a_at) / RFU OR2T12 /// OR2T33 /// OR2T8 (11738714_s_at) / Fold change /veh OR2T12 /// OR2T33 /// OR2T8 (11738714_s_at) / RFU VCAN (11748164_a_at) / Fold change /veh VCAN (11748164_a_at) / RFU JSRP1 (11732532_at) / Fold change /veh JSRP1 (11732532_at) / RFU KRTAP10-11 (11738290_x_at) / Fold change /veh KRTAP10-11 (11738290_x_at) / RFU MYO3A (11730013_a_at) / Fold change /veh MYO3A (11730013_a_at) / RFU EBF3 (11725865_a_at) / Fold change /veh EBF3 (11725865_a_at) / RFU CAMK2N1 (11719241_x_at) / Fold change /veh CAMK2N1 (11719241_x_at) / RFU C5orf56 (11738088_a_at) / Fold change /veh C5orf56 (11738088_a_at) / RFU OLFML3 (11715873_a_at) / Fold change /veh OLFML3 (11715873_a_at) / RFU LOC100653217 /// NTM (11731650_a_at) / Fold change /veh LOC100653217 /// NTM (11731650_a_at) / RFU MAPK11 (11762145_a_at) / Fold change /veh MAPK11 (11762145_a_at) / RFU FIZ1 (11724087_x_at) / Fold change /veh FIZ1 (11724087_x_at) / RFU OASL (11726364_x_at) / Fold change /veh OASL (11726364_x_at) / RFU SOX15 (11748057_x_at) / Fold change /veh SOX15 (11748057_x_at) / RFU CD79A (11719716_a_at) / Fold change /veh CD79A (11719716_a_at) / RFU HIST1H1D (11736915_at) / Fold change /veh HIST1H1D (11736915_at) / RFU CASKIN2 (11723855_a_at) / Fold change /veh CASKIN2 (11723855_a_at) / RFU LOC730098 (11760151_x_at) / Fold change /veh LOC730098 (11760151_x_at) / RFU OR4N2 (11742367_at) / Fold change /veh OR4N2 (11742367_at) / RFU PRRT2 (11749266_a_at) / Fold change /veh PRRT2 (11749266_a_at) / RFU SNX32 (11753110_a_at) / Fold change /veh SNX32 (11753110_a_at) / RFU CDHR5 (11726645_a_at) / Fold change /veh CDHR5 (11726645_a_at) / RFU RCAN1 (11760418_a_at) / Fold change /veh RCAN1 (11760418_a_at) / RFU FAM167A (11723789_a_at) / Fold change /veh FAM167A (11723789_a_at) / RFU FAM26E (11764081_at) / Fold change /veh FAM26E (11764081_at) / RFU ISYNA1 (11749810_s_at) / Fold change /veh ISYNA1 (11749810_s_at) / RFU ACY1 (11761880_at) / Fold change /veh ACY1 (11761880_at) / RFU 11764098_at / Fold change /veh 11764098_at / RFU SAMD14 (11745864_x_at) / Fold change /veh SAMD14 (11745864_x_at) / RFU NPB (11741838_a_at) / Fold change /veh NPB (11741838_a_at) / RFU TMPRSS6 (11731388_a_at) / Fold change /veh TMPRSS6 (11731388_a_at) / RFU KRTAP10-2 (11738614_at) / Fold change /veh KRTAP10-2 (11738614_at) / RFU ARHGAP8 /// PRR5-ARHGAP8 (11727945_x_at) / Fold change /veh ARHGAP8 /// PRR5-ARHGAP8 (11727945_x_at) / RFU KRTAP5-7 /// NADSYN1 (11734609_at) / Fold change /veh KRTAP5-7 /// NADSYN1 (11734609_at) / RFU RASL12 (11751679_a_at) / Fold change /veh RASL12 (11751679_a_at) / RFU CDKN2B (11736163_a_at) / Fold change /veh CDKN2B (11736163_a_at) / RFU PRF1 (11729649_at) / Fold change /veh PRF1 (11729649_at) / RFU, ZNF638 /// ZNF638-IT1 / Fold change vs veh, ZNF638 /// ZNF638-IT1 / RFU, PANK3 / Fold change vs veh, PANK3 / RFU, SH3YL1 / Fold change vs veh, SH3YL1 / RFU, ZEB2 / Fold change vs veh, ZEB2 / RFU, NRIP1 / Fold change vs veh, NRIP1 / RFU, PTTG1IP / Fold change vs veh, PTTG1IP / RFU, CAPN2 / Fold change vs veh, CAPN2 / RFU, MED14 / Fold change vs veh, MED14 / RFU, SNORA58 / Fold change vs veh, SNORA58 / RFU, C1orf63 / Fold change vs veh, C1orf63 / RFU, LRRFIP1 / Fold change vs veh, LRRFIP1 / RFU, NDUFAF7 / Fold change vs veh, NDUFAF7 / RFU, SLC12A2 / Fold change vs veh, SLC12A2 / RFU, IBTK / Fold change vs veh, IBTK / RFU, ESF1 / Fold change vs veh, ESF1 / Fold change vs veh, TMEM50B / RFU, TAOK1 / Fold change vs veh, TAOK1 / RFU, ACBD3 / Fold change vs veh, ACBD3 / RFU, TMA16 / Fold change vs veh, TMA16 / RFU, RWDD3 / Fold change vs veh, RWDD3 / RFU, BCAT1 / Fold change vs veh, BCAT1 / RFU, EDEM3 / Fold change vs veh, EDEM3 / RFU, TMEM33 / Fold change vs veh, TMEM33 / RFU, WDR75 / Fold change vs veh, WDR75 / RFU, AHCTF1 / Fold change vs veh, AHCTF1 / RFU, TFRC / Fold change vs veh, TFRC / RFU, ZDHHC17 / Fold change vs veh, ZDHHC17 / RFU, NOM1 / Fold change vs veh, NOM1 / RFU, ARL8B / Fold change vs veh, ARL8B / RFU, ZBTB11 / Fold change vs veh, ZBTB11 / RFU, TAMM41 / Fold change vs veh, TAMM41 / RFU, KIAA1704 /// LOC100996395 / Fold change vs veh, KIAA1704 /// LOC100996395 / RFU, ING1 / Fold change vs veh, ING1 / RFU, TRMT61B / Fold change vs veh, TRMT61B / RFU, FUBP3 / Fold change vs veh, FUBP3 / RFU, TP53 / Fold change vs veh, TP53 / RFU, TNKS2 / Fold change vs veh, TNKS2 / RFU, ZFP14 / Fold change vs veh, ZFP14 / RFU, ACTR2 / Fold change vs veh, ACTR2 / RFU, PPP3R1 / Fold change vs veh, PPP3R1 / RFU, PIK3R1 / Fold change vs veh, PIK3R1 / RFU, HNRNPA1 / Fold change vs veh, HNRNPA1 / RFU, RNF170 / Fold change vs veh, RNF170 / RFU, ZNF28 / Fold change vs veh, ZNF28 / RFU, RNGTT / Fold change vs veh, RNGTT / RFU, OGT / Fold change vs veh, OGT / RFU, BRD1 / Fold change vs veh, BRD1 / RFU, MARS / Fold change vs veh, MARS / RFU, ZNF655 / Fold change vs veh, ZNF655 / RFU, FAHD1 / Fold change vs veh, FAHD1 / RFU, BDP1 / Fold change vs veh, BDP1 / RFU, LRRCC1 / Fold change vs veh, LRRCC1 / RFU, ARID1A / Fold change vs veh, ARID1A / RFU, ZNF146 / Fold change vs veh, ZNF146 / RFU, ZNF330 / Fold change vs veh, ZNF330 / RFU, GPN3 / Fold change vs veh, GPN3 / RFU, C9orf123 / Fold change vs veh, C9orf123 / RFU, N4BP2L2 / Fold change vs veh, N4BP2L2 / RFU, ARFIP1 / Fold change vs veh, ARFIP1 / RFU, FAM179B / Fold change vs veh, FAM179B / RFU, BCL10 / Fold change vs veh, BCL10 / RFU, UHRF1BP1L / Fold change vs veh, UHRF1BP1L / RFU, BET1 / Fold change vs veh, BET1 / RFU, CNOT2 / Fold change vs veh, CNOT2 / RFU, ZNF268 / Fold change vs veh, ZNF268 / Fold change vs veh, ZNF507 / RFU, DGCR2 / Fold change vs veh, DGCR2 / RFU, WDSUB1 / Fold change vs veh, WDSUB1 / Fold change vs veh, HSP90B1 /// MIR3652 / RFU, ADSS / Fold change vs veh, ADSS / RFU, GK / Fold change vs veh, GK / RFU, ZNF148 / Fold change vs veh, ZNF148 / RFU, TAF9 / Fold change vs veh, TAF9 / RFU, SLC1A5 / Fold change vs veh, SLC1A5 / RFU, SLMO2 / Fold change vs veh, SLMO2 / RFU, ABCC4 / Fold change vs veh, ABCC4 / RFU, LOC101060439 /// RAP1B / Fold change vs veh, LOC101060439 /// RAP1B / RFU, RFX7 / Fold change vs veh, RFX7 / RFU, GTPBP10 / Fold change vs veh, GTPBP10 / RFU, CNEP1R1 / Fold change vs veh, CNEP1R1 / RFU, BIVM-ERCC5 /// ERCC5 / Fold change vs veh, BIVM-ERCC5 /// ERCC5 / RFU, ILF3 / Fold change vs veh, ILF3 / RFU 11762660_at / Fold change /veh 11762660_at / RFU VCAN (11757783_s_at) / Fold change /veh VCAN (11757783_s_at) / RFU DDX43 (11728927_at) / Fold change /veh DDX43 (11728927_at) / RFU KRT8 (11758188_x_at) / Fold change /veh KRT8 (11758188_x_at) / RFU NKD1 (11759106_at) / Fold change /veh NKD1 (11759106_at) / RFU SRD5A1 (11742802_a_at) / Fold change /veh SRD5A1 (11742802_a_at) / RFU TPSAB1 /// TPSB2 (11721975_s_at) / Fold change /veh TPSAB1 /// TPSB2 (11721975_s_at) / RFU GSTM3 (11746129_a_at) / Fold change /veh GSTM3 (11746129_a_at) / RFU IL23R (11737362_x_at) / Fold change /veh IL23R (11737362_x_at) / RFU TMEM51 (11727254_a_at) / Fold change /veh TMEM51 (11727254_a_at) / RFU PIWIL2 (11732686_x_at) / Fold change /veh PIWIL2 (11732686_x_at) / RFU ORM1 (11744905_x_at) / Fold change /veh ORM1 (11744905_x_at) / RFU CCDC152 (11743942_at) / Fold change /veh CCDC152 (11743942_at) / RFU ECM1 (11717891_a_at) / Fold change /veh ECM1 (11717891_a_at) / RFU IL23R (11748794_a_at) / Fold change /veh IL23R (11748794_a_at) / RFU TNFAIP8L3 (11732012_x_at) / Fold change /veh TNFAIP8L3 (11732012_x_at) / RFU MBOAT4 (11741988_at) / Fold change /veh MBOAT4 (11741988_at) / RFU 11764193_at / Fold change /veh 11764193_at / RFU TMEM53 (11763286_at) / Fold change /veh TMEM53 (11763286_at) / RFU MAGEB2 (11727129_at) / Fold change /veh MAGEB2 (11727129_at) / RFU TMEM200A (11744735_a_at) / Fold change /veh TMEM200A (11744735_a_at) / RFU CCDC152 (11751479_a_at) / Fold change /veh CCDC152 (11751479_a_at) / RFU FAM211A (11726209_a_at) / Fold change /veh FAM211A (11726209_a_at) / RFU RGS16 (11746705_a_at) / Fold change /veh RGS16 (11746705_a_at) / RFU VCAN (11755009_s_at) / Fold change /veh VCAN (11755009_s_at) / RFU RHOB (11743442_s_at) / Fold change /veh RHOB (11743442_s_at) / RFU RGS16 (11720943_a_at) / Fold change /veh RGS16 (11720943_a_at) / RFU RGS16 (11720944_at) / Fold change /veh RGS16 (11720944_at) / RFU, VPS4B / Fold change vs veh, VPS4B / RFU, CREB1 / Fold change vs veh, CREB1 / RFU, DNAJC13 / Fold change vs veh, DNAJC13 / RFU, GNAQ / Fold change vs veh, GNAQ / RFU, CDK5R1 / Fold change vs veh, CDK5R1 / RFU, ZRANB3 / Fold change vs veh, ZRANB3 / RFU, CUL4A / Fold change vs veh, CUL4A / RFU, CCNY / Fold change vs veh, CCNY / RFU, UFL1 / Fold change vs veh, UFL1 / RFU, COG3 / Fold change vs veh, COG3 / RFU, DIAPH2 / Fold change vs veh, DIAPH2 / RFU, SKA2 / Fold change vs veh, SKA2 / RFU, AFF3 / Fold change vs veh, AFF3 / RFU, LMF1 / Fold change vs veh, LMF1 / RFU, IPO11 / Fold change vs veh, IPO11 / RFU, DFFB / Fold change vs veh, DFFB / RFU, FOXP1 / Fold change vs veh, FOXP1 / RFU, CARD8 / Fold change vs veh, CARD8 / RFU, STRN3 / Fold change vs veh, STRN3 / RFU, ADK / Fold change vs veh, ADK / RFU, RASSF2 / Fold change vs veh, RASSF2 / RFU, WIPF1 / Fold change vs veh, WIPF1 / RFU, LARP1B / Fold change vs veh, LARP1B / RFU, RASA1 / Fold change vs veh, RASA1 / RFU, RB1 / Fold change vs veh, RB1 / RFU, PPFIA1 / Fold change vs veh, PPFIA1 / RFU, MAT2A / Fold change vs veh, MAT2A / RFU, CCT5 / Fold change vs veh, CCT5 / RFU, WDR92 / Fold change vs veh, WDR92 / RFU, CUX1 / Fold change vs veh, CUX1 / RFU, TTC7A / Fold change vs veh, TTC7A / RFU, TMEM135 / Fold change vs veh, TMEM135 / RFU, DEPTOR / Fold change vs veh, DEPTOR / RFU, CPM / Fold change vs veh, CPM / RFU, DNAJB6 / Fold change vs veh, DNAJB6 / RFU, CACNA2D3 / Fold change vs veh, CACNA2D3 / RFU, DTX4 / Fold change vs veh, DTX4 / RFU, TFCP2 / Fold change vs veh, TFCP2 / RFU, GMCL1 /// GMCL1P1 / Fold change vs veh, GMCL1 /// GMCL1P1 / RFU, AEBP2 / Fold change vs veh, AEBP2 / RFU, SNHG1 /// SNORD22 /// SNORD25 /// SNORD26 /// SNORD27 /// SNORD28 /// SNORD29 /// SNORD31 / Fold change vs veh, SNHG1 /// SNORD22 /// SNORD25 /// SNORD26 /// SNORD27 /// SNORD28 /// SNORD29 /// SNORD31 / Fold change (Aza/veh), C12orf56 (ProbeSet 11735607_a_at) / Fold change (ACY-1035/veh), C12orf56 (ProbeSet 11735607_a_at) / Fold change (Aza/veh), FGFR1OP (ProbeSet 11751329_s_at) / Fold change (ACY-1035/veh), FGFR1OP (ProbeSet 11751329_s_at) / Fold change (Aza/veh), VPS36 (ProbeSet 11739960_a_at) / Fold change (ACY-1035/veh), VPS36 (ProbeSet 11739960_a_at) / RFU SYPL1 (11715823_x_at) / Fold change /veh SYPL1 (11715823_x_at) / RFU IGFBP7 (11715501_s_at) / Fold change /veh IGFBP7 (11715501_s_at) / RFU REEP3 (11722064_at) / Fold change /veh REEP3 (11722064_at) / RFU IGLL1 (11728026_x_at) / Fold change /veh IGLL1 (11728026_x_at): dose or concentration left out as unconfirmed. Particulars: ProbeSet 11728676_at; LIST B.

SMILES strings stand for the structures.

As to `Nc1ccc(-c2cccs2)cc1NC(=O)c1ccc2c(c1)cc(C1CC1)n2CCN1CCOCC1` [ACY-1035], the “Fold change vs veh, MED14” value is given as 0.95.
